Where a SMILES comes first, the peptide text is derived from it. Bridges are numbered along the chain shown (N, C = ends). [ ]: non-standard residue; d: D form. Tle = CC(C)(C)[C@H](N)C(=O)O; Nle = CCCC[C@H](N)C(=O)O; Orn = NCCC[C@H](N)C(=O)O; Dab = NCC[C@H](N)C(=O)O; Dap = NC[C@H](N)C(=O)O
Tests used:
Assay type in all cases: cell-based
[1] = system: human red blood cells (hRBC); assay: Hemolysis of human red blood cells; settings: red cells of human, 1 h, 100 μg/mL
Summary of the method: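 Washed fresh human erythrocytes (20% v/v, ~0.9×10^9 cells/mL final) were incubated with peptides at 100 μg/mL for 1 h at 37 °C with shaking. Supernatant OD540 measured; hemolysis expressed as % of 2.5% Triton X-100 lysis, with PBS/0.001% acetic acid as 0%.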

[2] = system: Pseudomonas aeruginosa ATCC 27853; settings: ATCC 27853
Summary of the method: (§1)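 CLSI broth microdilution in cation-adjusted Mueller-Hinton II broth with 0.002% Polysorbate 80, inoculum appr. 10^6 CFU/mL, peptides in serial two-fold dilutions. MIC (μg/mL) is the lowest concentration with no visible growth after 18-20 hours at 35° C.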

[3] = system: Klebsiella pneumoniae 968733; settings: 968733
[4] = system: Acinetobacter baumannii 872842; settings: 872842
[5] = system: Acinetobacter baumannii DSM 30008; settings: DSM 30008
Summary of the method: as §1

[6] = system: Klebsiella pneumoniae SSI #3010; settings: SSI #3010
Summary of the method: as §1

[7] = system: Escherichia coli ATCC 25922; settings: ATCC 25922
Summary of the method: as §1

[8] = system: Escherichia coli 926415; settings: 926415

| SMILES | Hemolysis at 100 μg/mL [1] [%] | Pseudomonas aeruginosa ATCC 27853 MIC [2] [µg/mL] | Klebsiella pneumoniae 968733 MIC [3] [µg/mL] | Acinetobacter baumannii 872842 MIC [4] [µg/mL] | Acinetobacter baumannii DSM 30008 MIC [5] [µg/mL] | Klebsiella pneumoniae SSI #3010 MIC [6] [µg/mL] | Escherichia coli ATCC 25922 MIC [7] [µg/mL] | Escherichia coli 926415 MIC [8] [µg/mL] |
| --- | --- | --- | --- | --- | --- | --- | --- | --- |
| CCCC[C@@H]1NC(=O)[C@@H]2CCCN2C(=O)[C@H]2CCCN2C(=O)[C@H](CO)NC(=O)[C@H](C)NC(=O)[C@H](C(C)(C)C)NC(=O)[C@@H](NC(=O)[C@H](Cc2c[nH]c3ccccc23)NC(=O)[C@H](CCN)NC(C)=O)CSSC[C@@H](C(=O)N[C@@H](CCCN)C(=O)N[C@@H](CCN)C(=O)N[C@H]2CCNC(=O)[C@H]([C@@H](C)O)NC(=O)[C@H](CCN)NC(=O)[C@H](CCN)NC(=O)[C@H](CC(C)C)NC(=O)[C@@H](Cc3ccccc3)NC(=O)[C@H](CCN)NC2=O)NC(=O)[C@H](Cc2ccc(O)cc2)NC(=O)[C@H](CO)NC1=O [Ex. 35] (Ac-[Dab]WC[Tle]AS[dP]P[Nle]SYC[Orn][Dab][Dab][Dab][dF]L[Dab][Dab]T; disulfide 3-12; lactam 15-C) | 1 | 1 | 2 | 1 | 0.5 | 0.25 | 0.25 | 0.5 |
| CCCC[C@@H]1NC(=O)[C@@H]2CCCN2C(=O)[C@H]2CCCN2C(=O)[C@H](CO)NC(=O)[C@H](C)NC(=O)[C@H](C(C)(C)C)NC(=O)[C@@H](NC(=O)[C@H](Cc2c[nH]c3ccccc23)NC(=O)[C@H](CCN)NC(C)=O)CSSC[C@@H](C(=O)N[C@@H](CCCN)C(=O)N[C@H](C(=O)N[C@@H](CCN)C(=O)N[C@H]2CCNC(=O)[C@H]([C@@H](C)O)NC(=O)[C@H](CCN)NC(=O)[C@H](CCN)NC(=O)[C@H](CC(C)C)NC(=O)[C@@H](Cc3ccccc3)NC(=O)[C@H](CCN)NC2=O)[C@@H](C)O)NC(=O)[C@H](Cc2ccc(O)cc2)NC(=O)[C@H](CO)NC1=O [Ex. 36] (Ac-[Dab]WC[Tle]AS[dP]P[Nle]SYC[Orn]T[Dab][Dab][Dab][dF]L[Dab][Dab]T; disulfide 3-12; lactam 16-C) | <1 | 0.5 | 0.5 | 0.5 | 0.25 | 0.25 | 0.25 | 0.25 |
| CCCC[C@@H]1NC(=O)[C@@H]2CCCN2C(=O)[C@H]2CCCN2C(=O)[C@H](CO)NC(=O)[C@H](C)NC(=O)[C@H](C(C)(C)C)NC(=O)[C@@H](NC(=O)[C@H](Cc2c[nH]c3ccccc23)NC(=O)[C@@H](N)CN)CSSC[C@@H](C(=O)N[C@@H](CCN)C(=O)N[C@H](C(=O)N[C@@H](CCN)C(=O)N[C@H]2CCNC(=O)[C@H]([C@@H](C)O)NC(=O)[C@H](CCN)NC(=O)[C@H](CCN)NC(=O)[C@H](CC(C)C)NC(=O)[C@@H](Cc3ccccc3)NC(=O)[C@H](CCN)NC2=O)[C@@H](C)O)NC(=O)[C@H](Cc2ccc(O)cc2)NC(=O)[C@H](CO)NC1=O [Ex. 37] (H-[Dap]WC[Tle]AS[dP]P[Nle]SYC[Dab]T[Dab][Dab][Dab][dF]L[Dab][Dab]T; disulfide 3-12; lactam 16-C) | 2 | 0.5 | 2 | 0.5 | 0.125 | 0.125 | 0.125 | 0.5 |
| CCCC[C@@H]1NC(=O)[C@@H]2CCCN2C(=O)[C@H]2CCCN2C(=O)[C@H](CO)NC(=O)[C@H](C)NC(=O)[C@H](C(C)(C)C)NC(=O)[C@@H](NC(=O)[C@H](Cc2c[nH]c3ccccc23)NC(=O)[C@@H](N)CCCN)CSSC[C@@H](C(=O)N[C@@H](CCN)C(=O)N[C@H](C(=O)N[C@@H](CCN)C(=O)N[C@H]2CCNC(=O)[C@H]([C@@H](C)O)NC(=O)[C@H](CCN)NC(=O)[C@H](CCN)NC(=O)[C@H](CC(C)C)NC(=O)[C@@H](Cc3ccccc3)NC(=O)[C@H](CCN)NC2=O)[C@@H](C)O)NC(=O)[C@H](Cc2ccc(O)cc2)NC(=O)[C@H](CO)NC1=O [Ex. 38] (H-[Orn]WC[Tle]AS[dP]P[Nle]SYC[Dab]T[Dab][Dab][Dab][dF]L[Dab][Dab]T; disulfide 3-12; lactam 16-C) | 1 | 0.25 | 2 | 0.5 | 0.5 | 0.25 | 0.25 | 0.125 |
| CCCC[C@@H]1NC(=O)[C@@H]2CCCN2C(=O)[C@H]2CCCN2C(=O)[C@H](CO)NC(=O)[C@H](C)NC(=O)[C@H](C(C)(C)C)NC(=O)[C@@H](NC(=O)[C@H](Cc2c[nH]c3ccccc23)NC(=O)[C@@H](N)CCCNC(=N)N)CSSC[C@@H](C(=O)N[C@@H](CCN)C(=O)N[C@H](C(=O)N[C@@H](CCN)C(=O)N[C@H]2CCNC(=O)[C@H]([C@@H](C)O)NC(=O)[C@H](CCN)NC(=O)[C@H](CCN)NC(=O)[C@H](CC(C)C)NC(=O)[C@@H](Cc3ccccc3)NC(=O)[C@H](CCN)NC2=O)[C@@H](C)O)NC(=O)[C@H](Cc2ccc(O)cc2)NC(=O)[C@H](CO)NC1=O [Ex. 39] (H-RWC[Tle]AS[dP]P[Nle]SYC[Dab]T[Dab][Dab][Dab][dF]L[Dab][Dab]T; disulfide 3-12; lactam 16-C) | 4 | 0.25 | 2 | 0.5 | 0.25 | 0.125 | 0.25 | 0.25 |
| CCCC[C@@H]1NC(=O)[C@@H]2CCCN2C(=O)[C@H]2CCCN2C(=O)[C@H](CO)NC(=O)[C@H](C)NC(=O)[C@H](C(C)(C)C)NC(=O)[C@@H](NC(=O)[C@H](Cc2c[nH]c3ccccc23)NC(=O)[C@@H](N)CCC(=O)O)CSSC[C@@H](C(=O)N[C@@H](CCN)C(=O)N[C@H](C(=O)N[C@@H](CCN)C(=O)N[C@H]2CCNC(=O)[C@H]([C@@H](C)O)NC(=O)[C@H](CCN)NC(=O)[C@H](CCN)NC(=O)[C@H](CC(C)C)NC(=O)[C@@H](Cc3ccccc3)NC(=O)[C@H](CCN)NC2=O)[C@@H](C)O)NC(=O)[C@H](Cc2ccc(O)cc2)NC(=O)[C@H](CO)NC1=O [Ex. 40] (H-EWC[Tle]AS[dP]P[Nle]SYC[Dab]T[Dab][Dab][Dab][dF]L[Dab][Dab]T; disulfide 3-12; lactam 16-C) | 2 | 0.5 | 4 | 0.125 | 0.25 | 0.25 | 0.125 | 0.5 |

— patent US10829520B2, “Beta-hairpin peptidomimetics” (POLYPHOR AG, priority 2015, dated 2020)
